Literature values as cited in US11389512B2, “Use of low molecular weight fractions of human serum albumin in treating diseases” (Ampio Pharmaceuticals, Inc., priority 2015, dated 2022).

Columns and labels:
[1] = test system: platelet activating factor
[2] = in vivo

time to be cleared from the body [2] [days]	Compound	inhibition of platelet activating factor [1]
	CC1NC(=O)C(CC(=O)O)NC1=O (centres unmarked) [DA-DKP, 3-methyl-2,5-diketopiperazine-6-acetic acid]	inhibit
5	CC(=O)Oc1ccccc1C(=O)O [aspirin, acetylsalicylic acid]	
